As usually defined, the EC50 is the concentration that produces a half-maximal response.

The target in the test is human activated kallikrein enzyme (Homo sapiens (Human), UniProt P03952). The test is described as follows: Inhibition of human activated kallikrein enzyme, fluorogenic peptide substrate assay (two formats). It is filed as biochemical. To be noted: Table 2; column head prints nM, ranges defined in μM; read-out: pKal EC50. As for the experimental part: The example compounds were evaluated for inhibition of the human activated kallikrein enzyme in two formats of an assay employing a fluorogenic peptide substrate. In one assay format, the concentrations of reagents were as follows: 20 mM Tris pH 7.5, 1 mM EDTA, 150 mM sodium chloride, 0.1% PEG-400, 0.1% Triton X-100, 500 pM activated kallikrein enzyme, 300 uM Pro-Phe-Arg-7-amido-4-methylcoumarin substrate. Prior to reaction initiation with substrate, enzyme and inhibitors were preincubated for 30 min at room temperature. After initiation with substrate, reactions were incubated for 10 min at room temperature and fluorescence emission at 460 nm from 380 nm excitation measured with a microplate reader. In another assay format, the concentrations of reagents were as follows: 20 mM Tris pH 7.5, 1 mM EDTA, 150 mM sodium chloride, 0.1% PEG-400, 0.1% Triton X-100, 5 pM activated kallikrein enzyme, 300 uM Pro-Phe-Arg-7-amido-4-methylcoumarin substrate. Prior to reaction initiation with substrate, enzyme and inhibitors were preincubated for 30 min at room temperature. After initiation with substrate, reactions were incubated for 18 hr at room temperature and fluorescence emission at 460 nm from 380 nm excitation measured with a microplate reader.
human activated kallikrein enzyme, sequence (P03952 391-638): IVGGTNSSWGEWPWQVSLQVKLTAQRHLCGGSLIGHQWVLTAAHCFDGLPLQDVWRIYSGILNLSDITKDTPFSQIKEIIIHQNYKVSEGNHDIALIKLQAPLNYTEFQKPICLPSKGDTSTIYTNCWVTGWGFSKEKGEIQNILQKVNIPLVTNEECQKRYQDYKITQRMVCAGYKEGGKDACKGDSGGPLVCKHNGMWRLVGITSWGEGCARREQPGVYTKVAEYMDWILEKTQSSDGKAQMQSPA
human activated kallikrein enzyme, sequence (P03952 20-390 partner): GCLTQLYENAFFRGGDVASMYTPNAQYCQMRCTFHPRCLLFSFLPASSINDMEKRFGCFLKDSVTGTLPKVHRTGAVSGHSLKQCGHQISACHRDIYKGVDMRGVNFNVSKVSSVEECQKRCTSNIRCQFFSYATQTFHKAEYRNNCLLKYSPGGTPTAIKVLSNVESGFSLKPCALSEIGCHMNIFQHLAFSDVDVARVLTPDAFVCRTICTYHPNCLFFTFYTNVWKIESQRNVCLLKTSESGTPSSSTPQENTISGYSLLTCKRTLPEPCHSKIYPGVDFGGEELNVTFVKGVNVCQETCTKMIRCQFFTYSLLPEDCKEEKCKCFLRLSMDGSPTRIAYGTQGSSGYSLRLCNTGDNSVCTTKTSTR
For the molecule `CNC(=O)[C@@H](CCCCNC(=N)N)NC(=O)c1csc([C@@H]2C[C@@H](N)CN2C(=O)c2cc3cc(Cl)ccc3s2)n1` [Compound 57, 2-((2S,4R)-4-amino-1-(5-chlorobenzo[b]thiophene-2-carbonyl)pyrrolidin-2-yl)-N—((R)-6-guanidino-1-(methylamino)-1-oxohexan-2-yl)thiazole-4-carboxamide], the EC50 lay in the range of 1000 to 5000 nM.

As for `CNC(=O)[C@H](CCCNC(=N)N)NC(=O)c1csc([C@@H]2C[C@@H](N)CN2C(=O)c2cn3cc(Cl)ccc3n2)n1` [Compound 28, 2-((2S,4R)-4-amino-1-(6-chloroimidazo[1,2-a]pyridine-2-carbonyl)pyrrolidin-2-yl)-N—((S)-5-guanidino-1-(methylamino)-1-oxopentan-2-yl)thiazole-4-carboxamide], the half-maximal effective concentration (EC50) fell in the range of 5000 to 9900 nM.

Turning to `CNC(=O)[C@H](CCCCNC(=N)N)NC(=O)c1csc([C@H]2C[C@H](N)CN2C(=O)c2cn3cc(Cl)ccc3n2)n1` [Compound 6, 2-((2R,4S)-4-amino-1-(6-chloroimidazo[1,2-a]pyridine-2-carbonyl)pyrrolidin-2-yl)-N—((S)-6-guanidino-1-(methylamino)-1-oxohexan-2-yl)thiazole-4-carboxamide], the half-maximal effective concentration (EC50) fell in the range of 1000 to 5000 nM.

With `CNC(=O)[C@@H](CCCCNC(=N)N)NC(=O)c1csc([C@H]2CCCN2C(=O)c2cn3cc(Cl)ccc3n2)n1` [Compound 4, 2-((R)-1-(6-Chloroimidazo[1,2-a]pyridine-2-carbonyl)pyrrolidin-2-yl)-N—((R)-6-guanidino-1-(methylamino)-1-oxohexan-2-yl)thiazole-4-carboxamide], the EC50 is over 9900 nM.

With `CNC(=O)[C@@H](CCCCNC(=N)N)NC(=O)c1csc([C@H]2C[C@H](O)CN2C(=O)c2cn3cc(Cl)ccc3n2)n1` [Compound 8, 2-((2R,4S)-1-(6-Chloroimidazo[,1,2-a]pyridine-2-carbonyl)-4-hydroxypyrrolidin-2-yl)-N—((R)-6-guanidino-1-(methylamino)-1-oxohexan-2-yl)thiazole-4-carboxamide], the EC50 is over 9900 nM.

On to `N=C(N)NCCCC[C@H](NC(=O)c1csc([C@@H]2C[C@@H](N)CN2C(=O)c2cn3cc(Cl)ccc3n2)n1)C(=O)O` [Compound 23, N^2-(2-((2S,4R)-4-amino-1-(6-chloroimidazo[1,2-a]pyridine-2-carbonyl)pyrrolidin-2-yl)thiazole-4-carbonyl)-N6-carbamimidoyl-L-lysine], for which the EC50 was at most 100 nM.

As for `CNC(=O)[C@H](CCCCNC(C)=O)NC(=O)c1csc([C@@H]2C[C@@H](N)CN2C(=O)c2cn3cc(Cl)ccc3n2)n1` [Compound 26, N—((S)-6-acetamido-1-(methylamino)-1-oxohexan-2-yl)-2-((2S,4R)-4-amino-1-(6-chloroimidazo[1,2-a]pyridine-2-carbonyl)pyrrolidin-2-yl)thiazole-4-carboxamide], the EC50 is over 9900 nM.

Turning to `Cc1cc(N)nc(C)c1CCNC(=O)c1csc([C@@H]2C[C@@H](N)CN2C(=O)c2cn3cc(Cl)ccc3n2)n1` [Compound 52, 2-((2S,4R)-4-amino-1-(6-chloroimidazo[1,2-a]pyridine-2-carbonyl)pyrrolidin-2-yl)-N-(2-(6-amino-2,4-dimethylpyridin-3-yl)ethyl)thiazole-4-carboxamide], the EC50 is over 9900 nM.

As to `CNC(=O)[C@H](CCCCNC(=N)N)NC(=O)c1csc([C@@H]2C[C@@H](N)CN2C(=O)c2nc3cc(Cl)ccc3s2)n1` [Compound 45, 2-((2S,4R)-4-amino-1-(5-chlorobenzo[d]thiazole-2-carbonyl)pyrrolidin-2-yl)-N—((S)-6-guanidino-1-(methylamino)-1-oxohexan-2-yl)thiazole-4-carboxamide], the EC50 is at most 100 nM.

Consider `CNC(=O)[C@H](CCCCNC(=N)N)NC(=O)c1csc([C@@H]2C[C@@H](N)CN2C(=O)c2cc3c(Cl)cccc3s2)n1` [Compound 63, 2-((2S,4R)-4-amino-1-(4-chlorobenzo[b]thiophene-2-carbonyl)pyrrolidin-2-yl)-N—((S)-6-guanidino-1-(methylamino)-1-oxohexan-2-yl)thiazole-4-carboxamide], for which the EC50 is 1000 to 5000 nM.

As for `CNC(=O)[C@H](CCCCNC(=N)N)NC(=O)c1csc([C@@H]2C[C@@H](O)CN2C(=O)c2cn3cc(Cl)ccc3n2)n1` [Compound 38, 2-((2S,4R)-1-(6-Chloroimidazo[1,2-a]pyridine-2-carbonyl)-4-hydroxypyrrolidin-2-yl)-N—((S)-6-guanidino-1-(methylamino)-1-oxohexan-2-yl)thiazole-4-carboxamide], the EC50 is over 9900 nM.

For the molecule `CNC(=O)[C@H](CCCCNC(=N)N)NC(=O)c1csc([C@@H]2C[C@@H](NC(C)=O)CN2C(=O)c2cn3cc(Cl)ccc3n2)n1` [Compound 35, 2-((2S,4R)-4-acetamido-1-(6-chloroimidazo[1,2-a]pyridine-2-carbonyl)pyrrolidin-2-yl)-N—((S)-6-guanidino-1-(methylamino)-1-oxohexan-2-yl)thiazole-4-carboxamide], the 50% effective concentration (EC50) was in the range of 1000 to 5000 nM.

`CNC(=O)[C@H](CCCCNC(=N)N)NC(=O)c1csc([C@@H]2C[C@@H](N)CN2C(=O)c2cc3ccc(Cl)cc3s2)n1` [Compound 62, 2-((2S,4R)-4-amino-1-(6-chlorobenzo[b]thiophene-2-carbonyl)pyrrolidin-2-yl)-N—((S)-6-guanidino-1-(methylamino)-1-oxohexan-2-yl)thiazole-4-carboxamide]: the EC50 was in the range of 100 to 1000 nM.

Consider `CN(C)C(=O)[C@H](CCCCNC(=N)N)NC(=O)c1csc([C@@H]2C[C@@H](N)CN2C(=O)c2cn3cc(Cl)ccc3n2)n1` [Compound 24, 2-((2S,4R)-4-amino-1-(6-chloroimidazo[1,2-a]pyridine-2-carbonyl)pyrrolidin-2-yl)-N—((S)-1-(dimethylamino)-6-guanidino-1-oxohexan-2-yl)thiazole-4-carboxamide], for which the 50% effective concentration (EC50) was 100 to 1000 nM.

For the molecule `N=C(N)NCCCCCNC(=O)c1csc([C@@H]2C[C@@H](N)CN2C(=O)c2cn3cc(Cl)ccc3n2)n1` [Compound 46, 2-((2S,4R)-4-amino-1-(6-chloroimidazo[1,2-a]pyridine-2-carbonyl)pyrrolidin-2-yl)-N-(5-guanidinopentyl)thiazole-4-carboxamide], the concentration for a half-maximal effect (EC50) was in the range of 100 to 1000 nM.

As to `CNC(=O)[C@@H](CCCCNC(=N)N)NC(=O)c1csc([C@@H]2C[C@@H](N)CN2C(=O)c2cn3cc(Cl)ccc3n2)n1` [Compound 12, 2-((2S,4R)-4-amino-1-(6-chloroimidazo[1,2-a]pyridine-2-carbonyl)pyrrolidin-2-yl)-N—((R)-6-guanidino-1-(methylamino)-1-oxohexan-2-yl)thiazole-4-carboxamide], the EC50 is at most 100 nM.

Take `N[C@@H]1C[C@@H](c2nc(C(=O)NCc3ccc4cc(Cl)ccc4c3)cs2)N(C(=O)c2cn3cc(Cl)ccc3n2)C1` [Compound 56, 2-((2S,4R)-4-amino-1-(6-chloroimidazo[1,2-a]pyridine-2-carbonyl)pyrrolidin-2-yl)-N-((6-chloronaphthalen-2-yl)methyl)thiazole-4-carboxamide]: the EC50 was over 9900 nM.

Regarding `CNC(=O)[C@H](CCCCNC(=N)N)NC(=O)c1csc([C@@H]2C[C@@H](N)CN2C(=O)C(C)C)n1` [Compound 18, 2-((2S,4R)-4-amino-1-isobutyrylpyrrolidin-2-yl)-N—((S)-6-guanidino-1-(methylamino)-1-oxohexan-2-yl)thiazole-4-carboxamide], the EC50 was over 9900 nM.

The values are drawn from patent publication US11168083B2, “Inhibitors of Plasma Kallikrein and uses thereof” (Takeda Pharmaceutical Company Limited, priority 2017, dated 2021).
